Where a name gives a salt, the structure may show the parent alone.
Assays:
[1] = tested on: histamine-induced bronchoconstriction; test: Bronchodilator activity in the Konzett-Rossler guinea pig preparation (histamine-induced bronchoconstriction); format: in vivo; set-up: key to Histamine Blockade: % blockade = 100 − (post-dose response / mean of 3 prior) × 100; conditions: for percent blockade of histamine / percent of aminophylline activity: 3 mg/kg intravenously; for percent blockade of histamine: 2 minutes prior to histamine; for Histamine Blockade: table 7, intravenous, 3 mg/kg except as otherwise indicated, aminophylline 10 mg/kg; for percent of aminophylline activity: aminophylline 10 mg/kg for comparison, histamine agonist
Method: Bronchodilator activity of representative triazolopyridazine compounds of the invention is examined in the Konzett-Rossler quinea pig preparation according to accepted procedures. See Knozett and Rossler; Arch. f. Exp. Path. u. Pharmakol. […] Int. Pharmacodyn. […] In this procedure an anesthetized guinea pig is artificially respired with a fixed volume of air. The volume of air is selected to slightly exceed the capacity of the guinea pig's lungs, and the excess air or "overflow" is measured. Test compounds are evaluated by administering a test compound intravenously 2 minutes prior to administration of an agonist compound (histamine, serotonin or acetylcholine) following 3 previous agonist doses resulting in relatively uniform (±10 percent) bronchoconstriction. […] This is calculated by dividing the "overflow" agonist response measured after administration of the test compound by the average of the 3 preceding agonist responses, multiplying by 100 and subtracting this value from 100 percent.

[2] = 30 minute LD50 (acute toxicity without sound); conditions: mouse, in vivo, ip
Method: (§1) The interaction of sound with the convulsive threshold of drugs is a known phenomenon which can be used to evaluate such side effects. […] In a procedure for pharmacological evaluation, the lowering of the convulsive threshold, or the lowering of the LD50, by sound can be studied in mice.
(§2) In the test operations, mice are administered a test compound by intraperitoneal injection at various dosages, and the number of mice showing tonic convulsions and the number of fatalities occurring within 30 minutes is recorded.

[3] = Audiogenic convulsive side effects (sound challenge: tonic convulsions and fatalities); conditions: mouse, ip
Method: as §1, §2
The sound exposure is carried out by placing the mice in a sound insulated cage with a bell which emits 120 decibels of sound, and activating the bell for two minutes. The number of tonic convulsions and fatalities are then recorded to determine the ED50 and LD50 in the presence of the sound challenge.

histamine aerosol = test: Histamine aerosol exposure (collapse time); format: in vivo, guinea pigs; conditions: challenged two hours after intraperitoneal injection, collapse time > mean + two SD of controls; for ED50: Cavia porcellus, ip, 2 h
Method: In another procedure, test compounds were administered to guinea pigs by intraperitoneal injection and the guinea pigs were challenged two hours later by exposure to a histamine aerosol. Untreated animals collapse when exposed to the histamine aerosol. […] The ED50 's of representative compounds are set out in the following table.

mice = conditions: U.S. Pat. No. 4,136,182; in words; cited from earlier work

Compound	Histamine Blockade [1]	LD50 at 0.5 h [2] [mg/kg]	LD50 ([3]; in vivo) [mg/kg]	TD50 [3] [mg/kg]	ED50 (histamine aerosol) [mg/kg]	also measured
Cc1cc2nnc(C)n2nc1N1CCCCC1 [3,7-dimethyl-6-piperidino-s-triazolo[4,3-b]pyridazine]	48	327	327	260		percent blockade of histamine [1]: 48%
Cc1nnc2c3c(c(N4CCOCC4)nn12)CCCC3 [6-Morpholino-3-methyl-7,8-tetramethylene-s-triazolo[4,3-b]pyridazine]	61	149	126	90		selectivity ratio ([3]; in vivo): ~1.18
c1nnc2c3c(c(N4CCOCC4)nn12)CCCC3 [6-Morpholino-7,8-tetramethylene-s-triazolo[4,3-b]pyridazine]						percent blockade of histamine [1]: 75%; percent of aminophylline activity [1]: 113%; selectivity ratio ([3]; in vivo): 3.8
Cc1nnc2c3c(c(N4CCCCC4)nn12)CCCC3 [6-Piperidino-3-methyl-7,8-tetramethylene-s-triazolo[4,3-b]pyridazine]	38	139	139	125		
Cc1c(N2CCCC2)nn2cnnc2c1C [7,8-Dimethyl-6-pyrrolidino-s-triazolo[4,3-b]pyridazine]	62	277	277			percent blockade of histamine [1]: 65%; percent of aminophylline activity [1]: 67%; TD50 ([3]; in vivo): 277 mg/kg
Cc1cc2nncn2nc1N1CCOCC1 [7-Methyl-6-morpholino-s-triazolo[4,3-b]pyridazine]		327	280	45		bronchodilator activity ([1]; in words): desirable bronchodilator activity
Cc1nnc2c3c(c(N4CCCN(C)CC4)nn12)CCCC3 [44 (dihydrochloride)]					23.8	
Cn1c(=O)c2[nH]cnc2n(C)c1=O [Aminophylline, reference compound]						inhibition in vivo at 10 mg/kg ([1]; Cavia porcellus, iv, read-out: Histamine Blockade): 37%
Cc1cc2nncn2nc1N1CCCC1 [Example 3, 7-methyl-6-pyrrolidino-s-triazolo[4,3-b]pyridazine]	43	272	176	141		
Cc1cc2nncn2nc1N1CCN(C)CC1 [Example 4, 7-Methyl-6-N-methylpiperazino-s-triazolo[4,3-b]pyridazine]	39	272	140			percent blockade of histamine [1]: 39%; TD50 ([3]; in vivo): 116 mg/kg
CN1CCN(c2nn3cnnc3c3c2C2CCC3C2)CC1 (stereo not shown) [Example 5, 7,8,9,10-tetrahydro-6-[4-methyl-1-piperazinyl)-7,10-methano(1,2,4)triazolo[3,4-a]phthalazine]	92	175	147	147		
Cc1nnc2c3c(c(N4CCOCC4)nn12)C1CCC3C1 (stereo not shown) [Example 6, 7,8,9,10-tetrahydro-3-methyl-6-(4-morpholinyl)-7,10-methano(1,2,4)triazolo[3,4-a]phthalazine]	76	86	74	61		
c1nnc2c3c(c(N4CCCC4)nn12)C1CCC3C1 (stereo not shown) [Example 7]	87	136	100	93		
c1nnc2c3c(c(N4CCCCC4)nn12)C1CCC3C1 (stereo not shown) [Example 8]	84	108	98	90		
Cc1nnc2c3c(c(N4CCCC4)nn12)C1CCC3C1 (stereo not shown) [Example 10]	95	85	85	85		
Cc1nnc2c3c(c(N4CCN(C)CC4)nn12)C1CCC3C1 (stereo not shown) [Example 13]	97	147	147			TD50 ([3]; in vivo): 147 mg/kg
c1nnc2c3c(c(N4CCCC4)nn12)C1CCC3CC1 [Example 15]	66	136	117	117		
c1nnc2c3c(c(N4CCOCC4)nn12)C1CCC3CC1 [Example 17]	58	118	85	62		
Cc1nnc2c3c(c(N4CCCC4)nn12)C1CCC3CC1 [Example 18]	55	141	141			TD50 ([3]; in vivo): 141 mg/kg
CN1CCN(c2nn3cnnc3c3c2C2CCC3CC2)CC1 [Example 21]	82	147	147	113		
Cc1nnc2c3c(c(N4CCN(C)CC4)nn12)C1CCC3CC1 [Example 23]	90	147	147			TD50 ([3]; in vivo): 147 mg/kg
c1nnc2c3c(c(N4CCCC4)nn12)CCCC3 [Example 24, 6-(1-pyrrolidinyl)-7,8,9,10-tetrahydro(1,2,4)triazolo[3,4-a]phthalazine]	86	191	170	150		percent blockade of histamine [1]: 100%; percent of aminophylline activity [1]: 105%

Compound	Histamine Blockade [1]	LD50 at 0.5 h [2] [mg/kg]	LD50 ([3]; in vivo) [mg/kg]	TD50 [3] [mg/kg]	ED50 (histamine aerosol) [mg/kg]	also measured
c1nnc2c3c(c(N4CCCCC4)nn12)CCCC3 [Example 25, 6-piperidino-7,8-tetramethylene-s-triazolo[4,3-b]pyridazine]	72	298	298	283		
CN1CCN(c2nn3cnnc3c3c2CCCC3)CC1 [Example 27, 6-(4-methyl-1-piperazinyl)-7,8-tetramethylene(1,2,4)triazolo[4,3-b]pyridazine]	91	147	134	134		
c1nnc2c3c(c(N4CCCCCC4)nn12)CCCC3 [Example 29, 6-(hexahydro-1H-azepin-1-yl)-7,8-tetramethylene(1,2,4)triazolo[4,3-b]pyridazine]					5	
CC1CCCN1c1nn2cnnc2c2c1CCCC2 (stereo not shown) [Example 30, 6-(2-methylpyrrolidinyl)-7,8-tetramethylene(1,2,4)triazolo[4,3-b]pyridazine]					1.6	
CNc1nn2cnnc2c2c1CCCC2 [Example 31]					4	
CN(C)c1nn2cnnc2c2c1CCCC2 [Example 32]					2.5	
CC1CCCN(c2nn3cnnc3c3c2CCCC3)C1 (stereo not shown) [Example 33]					1.8	
CC1CCN(c2nn3cnnc3c3c2CCCC3)CC1 [Example 34]					1.3	
CNc1nn2c(C)nnc2c2c1CCCC2 [Example 38]					2.1	
Cc1nnc2c3c(c(N(C)C)nn12)CCCC3 [Example 39]					2.2	
CCc1nnc2c3c(c(N4CCCN(C)CC4)nn12)CCCC3 [Example 45]					5	
CCc1nnc2c3c(c(N4CCCN(C)CC4)nn12)CCCC3 [Example 46]						ED50 (histamine aerosol exposure) (histamine aerosol; 120 min): < 5 mg/kg i.p.
CCc1nnc2c3c(c(N4CCCCCC4)nn12)CCCC3 [Example 47]					~4.95	
CCc1nnc2c3c(c(N4CCCC4)nn12)CCCC3 [Example 51]					< 2.5	
CCc1nnc2c3c(c(N4CCN(C)CC4)nn12)CCCC3 [Example 53]					36.4	
CC(C)c1nnc2c3c(c(N4CCCC4C)nn12)CCCC3 (stereo not shown) [Example 55]					~7.9	
CC(C)c1nnc2c3c(c(N4CCCC4)nn12)CCCC3 [Example 56]					~5.1	
Cc1c(N2CCCCC2)nn2c(C)nnc2c1C [R7 Methyl; R3 CH3; R8 CH3; R6 Piperidino, 6-Piperidino-3,7,8-trimethyl-s-triazolo[4,3-b]pyridazine]	30	141	141			TD50 ([3]; in vivo): 141 mg/kg
Cc1c(N2CCOCC2)nn2cnnc2c1C [R7 Methyl; R3 H; R8 CH3; R6 Morpholino, 6-Morpholino-7,8-dimethyl-s-triazolo[4,3-b]pyridazine]	46	272	272			TD50 ([3]; in vivo): 272 mg/kg
Cc1c(N2CCCCC2)nn2cnnc2c1C [R7 Methyl; R3 H; R8 CH3; R6 Piperidino, 6-Piperidino-7,8-dimethyl-s-triazolo[4,3-b]pyridazine]	45	404	404			TD50 ([3]; in vivo): 404 mg/kg
O=C1C[C@@H]2OCC=C3CN4CC[C@]56c7ccccc7N1[C@H]5[C@H]2[C@H]3C[C@H]46 [strychnine]						change in toxicity with sound (mice): no significant change in toxicity with sound

Source: patent US4526890A, “3,6,7,8-Substituted-s-triazolo[4,3-b]pyridazines as bronchodilators” (The Dow Chemical Company, priority 1981, dated 1985)
